In one assay the test system is cerebral aneurysm model. Description: Inhibitory effect on formation of cerebral aneurysm in cerebral aneurysm model (EvG staining, size of aneurysm). The assay is classed as in vivo, SD rat. The note with it: 5 mL/kg, forced oral, once a day, Day 0 to Day 26. Here is the method: A rat model of cerebral aneurysm was prepared according to the method disclosed on the literature by Hashimoto et al. (Surgical Neurology 1978, Vol. 10, p. 3-8). Namely, 50 mg/kg of pentobarbital was administrated intraperitoneally to a 7-week-old male SD rat, and the left common carotid artery and the left renal artery were ligated by using 10-0 nylon thread under anesthesia (this is referred to as the surgery for inducing cerebral aneurysm). From the day after surgery (Day 1), the rat was reared with being fed a high-salt diet. During a rearing period, the rat was given free access to water. Forced oral administration of 0.03 mg/5 mL or 0.1 mg/5 mL of the suspension of Compound 1 to the cerebral aneurysm model was conducted once a day at a dose of 5 mL/kg from the day after surgery, i.e., 1 day after surgery (Day 1) to 27 days after surgery (Day 27). It should be noted that forced oral administration of the 0.5% MC solution (0 mg/5 mL of the suspension of Compound 1) to the cerebral aneurysm model was conducted once a day at a dose of 5 mL/kg. The group of these rats was defined as a vehicle group. 28 Days after surgery (Day 28), the right olfactory artery/anterior cerebral artery bifurcation containing cerebral aneurysm was extirpated and was fixed with 4% paraformaldehyde, and then the solution was replaced with a 30% sucrose solution, and thereafter, the extirpated bifurcation was frozen to prepare a specimen of a frozen section having a thickness of 5 μm, by similar procedures to the steps 1) and 2) of the method of Reference Example 2. This specimen was subjected to EvG staining and the formation of cerebral aneurysm was confirmed. The size of cerebral aneurysm was measured and evaluation was conducted. The maximum diameter (Maximum) represents the maximum distance between internal elastic lamina disruption sites observed by EvG staining, the height “Height” represents the maximum value of height defined as the length of the perpendicular line drawn from the line connecting the two ends of internal elastic lamina, and the mean diameter “Mean” represents the mean value of the maximum diameter and the height. This evaluation was conducted on all the rats (8 or 9 rats) of each of the groups, and the mean value of each of the groups was calculated. The administration of 0.1 mg/5 mL of a suspension of Compound 2 to the cerebral aneurysm model was started on the day of the surgery (Day 0) at a dose of 5 mL/kg, and forced oral administration was conducted once a day until 26 days after surgery (Day 26). The size of cerebral aneurysm was measured by using the protocol of Example 1. […] The size of cerebral aneurysm was measured by using the protocol of Example 1. […] The size of cerebral aneurysm was measured by using the protocol of Example 1.

Assay [1] concerns Human carotid artery endothelial cells. Kind of assay: Inhibitory action of S1P1 receptor antagonist on inhibitory effect of Compound 1 on permeability of endothelial cells. The format is cell-based. As to conditions: antagonist 0.1 nM, 1 nM, 10 nM, or 100 nM with Compound 1 100 nM; FITC-dextran; FIG. 15. Here is the method: Human carotid artery endothelial cells HCtAEC (Cell Applications) were seeded in the upper compartment of Transwell (diameter: 6.5 mm, pore size: 0.4 μm, collagen-Coated: Corning) so that the cell density was 1×10^5 cells/well, and the cells were cultured overnight in MesoEndo Growth Medium (Cell Applications) under a 5% CO2 atmosphere at 37° C. The medium was replaced with Endothelial Cell Serum-Free Defined Medium (Cell Applications), and the cells were further cultured overnight under the CO2 atmosphere at 37° C. Then, Compound 1 was added to the upper compartment and the lower compartment of Transwell so that the final concentration was 0 nM, 0.1 nM, 1 nM, 10 nM, or 100 nM, and the cells were cultured continuously. The well to which Compound 1 was not added was defined as a control. After culturing for 60 minutes, 250 μg/mL of fluorescein isothiocyanate (FITC)-dextran (2,000 kDa: Sigma-Aldrich) was added to the upper compartment of Transwell, and the amount of FITC-dextran which permeated into the lower compartment was determined by measuring the fluorescence intensity of the medium in the lower compartment after 5 minutes, 60 minutes, and 210 minutes. […]
After culturing for 60 minutes, the amount of FITC-dextran which permeated into the lower compartment was determined in a similar manner to Example 6.

`Cl.NC(CO)(CO)CCc1ccc(Sc2cccc(OCc3ccccc3)c2)cc1Cl` [Compound 3, 2-amino-2-[2-[4-[3-(benzyloxy)phenylsulfanyl]-2-chlorophenyl]ethyl]propane-1,3-diol hydrochloride]: the “formation of cerebral aneurysm (size)” value in the assay with cerebral aneurysm model (0.01 mg/5 mL suspension, FIG. 12) is reported as “inhibited the formation of cerebral aneurysm”. Turning to `CCn1c(Oc2cccc(N3CCN(C)CC3)c2)nnc1[C@@H](C)NS(=O)(=O)c1ccc2c(Cl)cccc2c1` [Compound At, 5-chloro-N-[(1R)-1-{4-ethyl-5-[3-(4-methylpiperazin-1-yl)phenoxy]-4H-1,2,4-triazol-3-yl}ethyl]naphthalene-2-sulfonamide], the “effect on the inhibitory effect of Compound 1 on permeability of endothelial cells” value in assay [1] is reported as “inhibited the inhibitory effect of Compound 1 on permeability of endothelial cells in a concentration-dependent manner”. As to `CCc1cc(/C(C)=N/OCc2ccc(C3CCCCC3)c(C(F)(F)F)c2)ccc1CN1CC(C(=O)O)C1` [Compound 4, 1-[4-[N-[4-cyclohexyl-3-(trifluoromethyl)benzyloxy]-1(E)-iminoethyl]-2-ethylbenzyl]azetidine-3-carboxylic acid], in the assay with cerebral aneurysm model (0.3 mg/5 mL suspension, FIG. 13), the “formation of cerebral aneurysm (size)” value is on record as “inhibited the formation of cerebral aneurysm”. Consider `Cl.O=C(O)C1CCN(CC2=Cc3ccc(OCc4ccc(OCC(F)(F)F)c(C(F)(F)F)c4)cc3OC2)CC1` [Compound 2, 1-[(7-{[4-(2,2,2-trifluoroethoxy)-3-(trifluoromethyl)benzyl]oxy}-2H-chromen-3-yl)methyl]piperidine-4-carboxylic acid hydrochloride], for which the “formation of cerebral aneurysm (size)” value in the assay with cerebral aneurysm model (0.1 mg/5 mL suspension, FIG. 11) is listed as “inhibited the formation of cerebral aneurysm”.
